According to PMC8263253, “Agonist and antagonist properties of an insect GABA-gated chloride channel (RDL) are influenced by heterologous expression conditions” (PLoS ONE, 2021):
Values joined by “and” are separate entries in the source; they are usually repeats but may differ in a detail not shown here. Identical values can stand only once.

Molecular target: BtRDL (Bombus terrestris RDL GABA-gated chloride channel) (Bombus terrestris audax, UniProt A0A8F2J2P3)
Experiment: Two-electrode voltage-clamp recording of BtRDL expressed in Xenopus oocytes
Assay type: cell-based
Conditions: for IC50: IC50 for block of GABA responses

Chain of BtRDL (Bombus terrestris RDL GABA-gated chloride channel) (A0A8F2J2P3 entry or part of it): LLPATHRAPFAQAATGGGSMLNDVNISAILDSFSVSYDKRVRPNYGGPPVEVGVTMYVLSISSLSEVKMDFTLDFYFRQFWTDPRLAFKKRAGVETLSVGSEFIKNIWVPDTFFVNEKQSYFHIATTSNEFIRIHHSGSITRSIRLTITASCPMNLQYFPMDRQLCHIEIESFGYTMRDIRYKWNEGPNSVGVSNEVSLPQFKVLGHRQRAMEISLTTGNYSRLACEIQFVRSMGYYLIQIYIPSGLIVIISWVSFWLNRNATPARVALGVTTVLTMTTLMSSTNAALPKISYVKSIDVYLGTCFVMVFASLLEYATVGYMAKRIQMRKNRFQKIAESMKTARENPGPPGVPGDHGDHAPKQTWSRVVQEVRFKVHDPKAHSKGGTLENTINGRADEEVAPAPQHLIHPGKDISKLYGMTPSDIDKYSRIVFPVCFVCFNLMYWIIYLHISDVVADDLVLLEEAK

NCCCC(=O)O [GABA, γ-aminobutyric acid]
maximum current (Imax) to GABA (1 ng BtRDL cRNA lacking 3'UTR, 1–3 days post-injection): 0.67 ± 0.04 μA
maximum current (Imax) to GABA (BtRDL 1 ng cRNA (+3'UTR) co-expressed with DmNACHO): 3.4 ± 0.6 μA
EC50 (GABA EC50, pGEMHE-BtRDL digested with NheI (3'UTR retained), 1 ng cRNA, three-days post-injection): 4 ± 1.1 µM
EC50 (GABA EC50, pGEMHE-BtRDL digested with XbaI (3'UTR removed), 1 ng cRNA, three-days post-injection): 27.6 ± 1.6 µM
EC50 (GABA EC50, pSP64GL-BtRDL cRNA containing 3'UTR, 1 ng, BtRDL expressed alone, three-days post-injection): 3.7 ± 0.4 µM
EC50 (GABA EC50, pSP64GL-BtRDL cRNA lacking 3'UTR, 1 ng, three-days post-injection): 31.4 ± 2.1 µM
EC50 (GABA apparent affinity EC50, BtRDL 1 ng cRNA (+3'UTR) + 10 ng cRNA CeRIC-3, Day 1): 10.6 ± 1.1 µM
EC50 (GABA apparent affinity EC50, BtRDL 1 ng cRNA (+3'UTR) + 10 ng cRNA CeRIC-3, Day 2): 5 ± 0.9 µM
EC50 (GABA apparent affinity EC50, BtRDL 1 ng cRNA (+3'UTR) + 10 ng cRNA CeRIC-3, Day 3): 4.2 ± 1 µM
EC50 (GABA apparent affinity EC50, BtRDL 1 ng cRNA (+3'UTR) + 10 ng cRNA DmNACHO, Day 1): 21 ± 1.1 µM
EC50 (GABA apparent affinity EC50, BtRDL 1 ng cRNA (+3'UTR) + 10 ng cRNA DmNACHO, Day 2): 14.8 ± 1.1 µM
EC50 (GABA apparent affinity EC50, BtRDL (+3'UTR), 1 ng cRNA, Day 2 post-injection): 4.4 ± 0.7 µM
EC50 (GABA apparent affinity EC50, BtRDL (+3'UTR), 1 ng cRNA, Day 3 post-injection): 3.9 ± 0.6 µM
EC50 (GABA apparent affinity EC50, BtRDL (+3'UTR), 10 ng cRNA, Day 1 post-injection): 10.8 ± 1.2 µM
EC50 (GABA apparent affinity EC50, BtRDL (+3'UTR), 10 ng cRNA, Day 2 post-injection): 2 ± 0.7 µM
EC50 (GABA apparent affinity EC50, BtRDL (+3'UTR), 10 ng cRNA, Day 3 post-injection): 1.8 ± 0.4 µM
EC50 (GABA apparent affinity EC50, BtRDL (-3'UTR), 1 ng cRNA, Day 1 post-injection): 29.7 ± 1.1 µM
EC50 (GABA apparent affinity EC50, BtRDL (-3'UTR), 1 ng cRNA, Day 2 post-injection): 28.3 ± 1.1 µM
EC50 (GABA apparent affinity EC50, BtRDL (-3'UTR), 1 ng cRNA, Day 3 post-injection): 29.4 ± 1 µM
EC50 (GABA apparent affinity EC50, BtRDL (-3'UTR), 10 ng cRNA, Day 1 post-injection): 27.3 ± 1.1 µM
EC50 (GABA apparent affinity EC50, BtRDL (-3'UTR), 10 ng cRNA, Day 2 post-injection): 10.8 ± 1 µM
EC50 (GABA apparent affinity EC50, BtRDL (-3'UTR), 10 ng cRNA, Day 3 post-injection): 12.5 ± 1 µM
EC50 (GABA apparent affinity EC50, BtRDL alone, 1 ng cRNA (+3'UTR), Day 2): 4.6 ± 0.9 µM
EC50 (apparent affinity for GABA, BtRDL populations with intermediate apparent affinities (summary in discussion)): ~4 µM and ~12 µM
EC50 (apparent affinity for GABA, BtRDL receptors with high apparent affinity (summary in discussion)): ~30 µM
EC50 (apparent affinity for GABA, BtRDL receptors with low apparent affinity (summary in discussion)): ~2 µM

CC(C)c1cccc(C(C)C)c1O [Propofol, propofol]
EC50 (propofol apparent affinity (agonist activation), BtRDL with high apparent affinity for GABA (10 ng cRNA +3'UTR, three-days)): 82.9 ± 6.4 µM
EC50 (propofol apparent affinity (agonist activation), BtRDL with low apparent affinity for GABA (1 ng cRNA +3'UTR, one-day)): 198 ± 19.1 µM

C=C(C)[C@@H]1[C@H]2OC(=O)[C@@H]1[C@]1(O)C[C@H]3O[C@]34C(=O)O[C@H]2[C@]14C [picrotoxinin]
IC50 (BtRDL with high apparent affinity for GABA (10 ng cRNA, pGEMHE NheI, three-days), EC50 concentration of GABA 1 μM): 14 ± 1.6 µM
IC50 (BtRDL with low apparent affinity for GABA (1 ng cRNA, pGEMHE XbaI, three-days), EC50 concentration of GABA 30 μM): 1.7 ± 0.3 µM
